Assay results reported in patent publication US20260166029A1, “METHODS AND SYSTEMS FOR TREATING DISEASE USING AN ATR/CHK1 SIGNALING PATHWAY INHIBITOR” (Acrivon Therapeutics, Inc., priority 2022, published 2026).
Values joined by “and” are separate entries in the source; they are usually repeats but may differ in a detail not shown here. Identical values can stand only once. Like-named read-outs stand apart in the source and are kept apart here.

How the values were obtained:
[1] = test system: SCLC; details: cited from earlier work
[2] = test system: Anal, SCC; details: cited from earlier work
[3] = test system: metastatic high-grade serous ovarian cancer; test: Observed treatment outcome in phase II clinical trials, patients with frozen pre-treatment biopsies (Example 4); assay type: in vivo, human; set-up: key to Treatment Result (RECIST): partial response (PR); stable disease (SD); progressive disease (PD)
Description: The study was conducted in a blinded, prospectively designed manner on pretreatment tumor biopsies collected from ovarian cancer patients treated in phase 2 trials at the NCI in the past with prexasertib, including a previous single center phase II clinical trial for prexasertib in metastatic high-grade serous ovarian cancer; see Lee et al., Lancet Oncol. 19(2): 207-215 (2018). These past studies were unable to identify predictive biomarkers. To evaluate whether a provided Response-Predictive Signature can successfully predict patient responders, frozen, de-identified sections of pre-treatment tumor biopsies from the phase II clinical trials were obtained. Moreover, they were received without any knowledge about clinical annotation, including response to prexasertib. Each patient tumor biopsy sample was stained using antibodies against three biomarkers and imaged using immunofluorescence microscopy. Biomarker 1 (BM1) was Ser296 phosphorylated Chk1. Biomarker 2 (BM2) was Ser473 phosphorylated Kap1. Biomarker 3 (BM3) was total cyclin E1. Unless otherwise indicated, these were the biomarkers used throughout the Examples.
To evaluate whether the provided Response-Predictive Signature can predict response to prexasertib treatment, the predicted response for each patient was compared to the observed treatment outcomes in the previously conducted phase II clinical trials for the patient (Table 6 and FIGS. 5, 12, and 13). This was done in a blinded manner, with quantitative biomarker scores and clinical annotation provided to a third-party biostatistician and the principal investigator, respectively. Observed treatment outcomes were classified according to RECIST criteria as partial response (PR), stable disease (SD), or progressive disease (PD). […] Additionally, the observed treatment outcome was quantified based on the fractional change in tumor volume after treatment and progression free survival (PFS) (Table 6 and FIGS. 5, 12, and 13).

[4] = test system: metastatic high-grade serous ovarian cancer; test: Observed response in phase 2 clinical trials, patients with FFPE pre-treatment biopsies (Example 5); assay type: in vivo, human; set-up: key to RECIST response category: SD: stable disease;; PR: partial response;; PD: progressive disease;; details: for RECIST Responder: RECIST response = PR or CR
Excerpt: Biopsy samples from several independent clinical phase 2 studies were merged for this analysis based on availability. Study JTJN (NCT03414047) was a large multicenter, multi-country, non-randomized, parallel cohort, Phase 2 study of prexasertib in subjects with advanced stage, high grade serous ovarian, primary peritoneal, or fallopian tube cancer. Several single-center phase 2 studies sponsored by NCI of prexasertib in BRCA ½ wild-type or BRCA ½ mutant recurrent high-grade serous ovarian cancer (NCT02203513) provided additional FFPE samples; see Lee, Lancet Oncol. 19(2): 207-215 (2018). To evaluate whether a provided Response-Predictive Signature can successfully predict patient responders, sections of pre-treatment tumor biopsies were stained blinded to treatment outcome using antibodies against three biomarkers (biomarker 1 (BM1) Ser296 phosphorylated Chk1, biomarker 2 (BM2) Ser473 phosphorylated Kap1, and biomarker 3 (BM3) total cyclin E1) and imaged using immunofluorescence microscopy. The tumor samples were additionally stained using an antibody against cytokeratin in order to identify and distinguish tumor cells of interest from the surrounding stroma and stained with DAPI to identify cell nuclei.
The Response-Predictive Signature was evaluated by comparing predicted response to prexasertib of each patient to observed response in the clinical trials (Table 8, FIG. 15). Observed clinical trial responses were provided separately to the third party biostatistician. They were classified according to RECIST criteria as complete response (CR), partial response (PR), stable disease (SD), or progressive disease (PD). Additionally, the observed treatment outcome was quantified based on the maximum fractional change in tumor volume after treatment (Table 8, FIG. 15). […] Clinical RECIST responder rate (PR or CR) among those predicted by the Response-Predictive Signature to be non-responders was 5%. Clinical RECIST responder rate (PR or CR) among those predicted by the Response-Predictive Signature to be responders was 58%. This 58% represented a substantial responder-enrichment over the overall unenriched response rate of 25%.

[5] = test system: Head and Neck, SCC; details: cited from earlier work
[6] = individual patients predicted non-responder (NR)
[7] = individual patients predicted responder (R)

SMILES: COc1cccc(OCCCN)c1-c1cc(Nc2cnc(C#N)cn2)n[nH]1 [prexasertib, 5-(5-(2-(3-aminopropoxy)-6-methoxyphenyl)-1H-pyrazol-3-ylamino)pyrazine-2-carbonitrile]
- ORR in trials ([1]; platinum resistant): 0% (platinum
- ORR in trials ([1]; platinum sensitive): 5% (platinum
- ORR in trials [2]: 15%
- FracShrink (fractional change in tumor volume) [3, 6]: 0.109 and 0 and −0.26 and −0.1 and 1.04 and 0.02 and 0.085 and −0.04
- PFS [3, 6]: 70 days and 56 days and 223 days and 104 days and 63 days and 33 days and 62 days and 112 days
- Treatment Result (RECIST) [3, 6]: SD (4×) and PD (4×)
- FracShrink (fractional change in tumor volume) [3, 7]: −0.36 and −0.345 and −0.46 and −0.33 and −0.27 and −0.01 (2×) and −0.23 and −0.76 and −0.14 and −0.02 and −0.11 and −0.5 and −0.495 and −0.194
- PFS [3, 7]: 101 days and 402 days and 286 days and 211 days and 392 days and 62 days and 510 days and 602 days and 238 days and 258 days and 140 days and 293 days and 230 days and 112 days and 123 days
- Treatment Result (RECIST) [3, 7]: PR (7×) and SD (7×) and PD
- overall unenriched response rate ([4]; all patients of the FFPE cohort): 25%
- Clinical RECIST responder rate (PR or CR) ([4]; among those predicted by the Response-Predictive Signature to be non-responders): 5%
- Clinical RECIST responder rate (PR or CR) ([4]; among those predicted by the Response-Predictive Signature to be responders): 58%
- Best Tumor Shrinkage (fraction from baseline) [4, 6]: 0.048 and 0.159 and −0.037 and −0.118 (2×) and 0.353 and −0.024 and −0.077 and 0 (2×) and 0.342 and 0.105 and −0.192 and 0.146 and −0.012 and 0.015 and 0.24 and 0.1 and 0.04 and 0.01
- RECIST response category [4, 6]: SD (16×) and PD (3×) and PR
- RECIST Responder [4, 6]: FALSE (19×) and TRUE
- Best Tumor Shrinkage (fraction from baseline) [4, 7]: 0.146 and 0 and 0.441 and 0.52 and 0.584 and −0.287 and 0.038 and 0.492 and 0.59 and 0.35 and 0.14 and 0.444
- RECIST response category [4, 7]: SD (4×) and PR (7×) and PD
- RECIST Responder [4, 7]: FALSE (5×) and TRUE (7×)
- ORR in trials [5]: 5%
